According to patent US9657079B2, “Truncated GLP-1 derivatives and their therapeutical use” (Novo Nordisk A/S, priority 2007, dated 2017):
Where a SMILES comes first, the peptide text is derived from it. [ ]: non-standard residue; d: D form. Aib = CC(C)(N)C(=O)O

Legend:
human GLP-1 receptor [1] = biological target: T1, human GLP-1 receptor (Homo sapiens, UniProt P43220); assay: Stimulation of cAMP formation, plasma membranes from BHK467-12A (tk-ts13) cells, AlphaScreen cAMP kit; format: biochemical; conditions: membranes of BHK467-12A (tk-ts13) expressing the human GLP-1 receptor; read-out: potency (EC50), cAMP formation
T1 construct: expressed in transfected cells; purified plasma membranes
T1 sequence (P43220 24-463): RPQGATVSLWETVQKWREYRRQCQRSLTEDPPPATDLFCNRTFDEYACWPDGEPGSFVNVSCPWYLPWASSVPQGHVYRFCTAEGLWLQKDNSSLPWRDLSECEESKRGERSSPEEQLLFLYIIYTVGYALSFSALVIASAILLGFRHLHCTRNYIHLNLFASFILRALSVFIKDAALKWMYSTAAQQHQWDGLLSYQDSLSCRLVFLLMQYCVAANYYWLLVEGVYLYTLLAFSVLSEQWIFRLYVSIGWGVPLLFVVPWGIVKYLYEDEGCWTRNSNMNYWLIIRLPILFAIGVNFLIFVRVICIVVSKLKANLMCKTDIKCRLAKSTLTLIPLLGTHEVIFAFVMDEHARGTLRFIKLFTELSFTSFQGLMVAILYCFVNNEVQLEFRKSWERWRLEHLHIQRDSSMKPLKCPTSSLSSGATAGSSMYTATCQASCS
Method: In particular embodiments (i) baby hamster kidney (BHK) cells expressing the cloned human GLP-1 receptor are used, preferably BHK-467-12A, more preferably BHK-467-12A (tk-ts13); (ii) the cells are grown in DMEM media with the addition of 100 IU/mL penicillin, 100 μg/mL streptomycin, 5% fetal calf serum and 0.5 mg/mL Geneticin G-418 (Life Technologies), preferably at 5% CO2; (iii) the cells, preferably at approximately 80% confluence, are washed twice in phosphate buffered saline; (iv) the cells are harvested with an aqueous solution of tetrasodium salt of ethylenediaminetetraacetic acid, such as Versene; (v) plasma membranes are prepared from the cells by homogenisation, preferably in buffer 1; the homogenate is centrifuged, e.g. at 48,000×g for 15 min at 4° C.; and/or (vii) the pellet is suspended by homogenization in buffer 2. Steps (vi) and (vii) are preferably repeated, e.g. one or two times more.
The functional receptor assay may be carried out as described in Example 21 by measuring cyclic AMP (cAMP) as a response to stimulation by the insulinotropic agent. cAMP formed is preferably quantified by the AlphaScreen™ cAMP Kit (Perkin Elmer Life Sciences). Incubations may be carried out in half-area 96-well microtiter plates in a total volume of 50 μL buffer 3 (50 mM Tris-HCI, 5 mM HEPES, 10 mM MgCl2, pH 7.4) and with the following additions: 1 mM ATP, 1 μM GTP, 0.5 mM 3-isobutyl-1-methylxanthine (IBMX), 0.01% Tween-20, 0.1% BSA, 6 μg membrane preparation, 15 μg/mL acceptor beads, 20 μg/mL donor beads preincubated with 6 nM biotinyl-cAMP. Analogues or derivatives to be tested for agonist activity are preferably dissolved and diluted in buffer 3. GTP is freshly prepared for each experiment. […]
For comparison, the potency of truncated natural, human GLP-1(7-33) was also determined.
Purified plasma membranes from a stable transfected cell line, BHK467-12A (tk-ts13), expressing the human GLP-1 receptor was stimulated with GLP-1 compound in question, and the potency of cAMP production was measured using the AlphaScreen™ cAMP Assay Kit from Perkin Elmer Life Sciences. […]
Cells at approximate 80% confluence are washed 2× with PBS (Phosphate Buffered Saline) and harvested with Versene (aqueous solution of the tetrasodium salt of ethylenediaminetetraacetic acid), centrifuged 5 min at 1000 rpm and the supernatant removed. […] Suspension in Buffer 2, homogenization and centrifugation is repeated once and the membranes are resuspended in Buffer 2 and ready for further analysis or stored at −80° C.
The functional receptor assay was carried out by measuring the peptide induced cAMP production by The AlphaScreen Technology. […] Formed cAMP is counted and measured at a Alpha Fusion Microplate Analyzer. […]

[2] = biological target: T2, isolated N-terminal extracellular domain of the GLP-1R receptor (nGLP-1R) (Homo sapiens, UniProt P43220); assay: Displacement of 125I-Exendin-4(9-39) from nGLP-1R (SPA); format: binding; conditions: SPA beads, read-out: affinity to nGLP-1R (IC50)
T2 construct: isolated N-terminal extracellular domain of the GLP-1R receptor (nGLP-1R); made in house
T2 sequence (P43220 24-139 limits assumed): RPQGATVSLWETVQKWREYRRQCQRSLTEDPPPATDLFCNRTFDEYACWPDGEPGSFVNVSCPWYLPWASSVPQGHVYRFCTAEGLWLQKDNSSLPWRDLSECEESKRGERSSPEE
Method: The protein is then biotinylated and immobilized, preferably on streptavidin-coated SPA beads. The nGLP1R in a suitable buffer such as 0.1M NaHCO3 may be biotinylated using 75 μg BNHS (Sigma H1759) to 1 mg protein. The biotinylated nGLP1R is subsequently preferably dialyzed against PBS. […] The plates are incubated on a shaker, preferably at RT for 3 hours. The SPA particles may be spun down by centrifugation, e.g. for 10 min at 1500 rpm, and the plates are counted, e.g. in a TopCount-NXT (PerkinElmer).
The nGLP1R in 0.1M NaHCO3 was biotinylated using 75 μg BNHS (Sigma H1759) to 1 mg protein. The biotinylated nGLP1R was subsequently dialyzed against PBS. All reagents and derivatives were diluted in PBS with 0.05% v/v Tween 20. […] The plates were incubated on a shaker at RT for 3 hours. The SPA particles were spun down by centrifugation for 10 min at 1500 rpm and the plates were counted in a TopCount-NXT (PerkinElmer).

human GLP-1 receptor [3] = biological target: T1, human GLP-1 receptor; assay: Displacement of 125I-GLP-1 from the GLP-1 receptor, BHK tk-ts13 membranes (SPA); conditions: displacement of 125I-GLP-1, BHK tk-ts13 membranes, read-out: IC50, binding affinity to the GLP-1 receptor
Text: In a second aspect, the GLP-1 analogue or derivative thereof (“GLP-1 compound”) has a high affinity to the GLP-1 receptor. The affinity to the GLP-1 receptor may be determined as described in Example 23, i.e. by way of displacement of ^125I-GLP-1 from the receptor. BHK cells may be used for membrane preparation, preferably strain tk-ts13. The membranes may be purified, preferably as described in Example 23, A preferred binding assay method is the SPA assay of Example 23.
The binding affinity of a number of GLP-1 compounds of the invention (compounds of Examples 1-7, and 9-18) to the human GLP-1 receptor was measured by way of their ability to displace ^125I-GLP-1 from the receptor.
Species (in vitro): Hamster
Biological End Point: Receptor Binding
The cells (approx. 80% confluence) were washed twice in PBS and harvested (PBS+EDTA or Versene), following which they were separated by centrifugation at 1000 rpm for 5 min. The cells/cell pellet must be kept on ice to the extent possible in the subsequent steps. The cell pellet was homogenised with Ultrathurrax for 20-30 seconds in a suitable amount of Buffer 1 (depending on the amount of cells, but e.g. 10 ml). The homogenate as centrifuged at 20000 rpm for 15 minutes. The pellet was resuspended (homogenised) in 10 ml Buffer 2 and re-centrifuged. This step was repeated once more. The resulting pellet was resuspended in Buffer 2, and the protein concentration was determined. The membranes were stored at −80° C.
Buffer 1: 20 mM Na-HEPES+10 mM EDTA, pH 7.4
Buffer 2: 20 mM Na-HEPES+0.1 mM EDTA, pH 7.4
Test compounds/peptides, membranes, SPA-particles and [^125I] are diluted in assay buffer. 25 ul (micro liter) of test compounds/peptides are added to Optiplate. Buffer is added (50 ul). Add 5-10 ug protein/sample (50 ul) corresponding to 0.1-0.2 mg protein/ml (to be preferably optimised for each membrane preparation). Add SPA-particles (Wheatgerm agglutinin SPA beads) RPNQ 0001) 0.5 mg/well (50 ul). Start the incubation with [I^125]-GLP-1 (final concentration 0.05 nM corresponding to 49.880 DPM, 25 ul). The plates are sealed with PlateSealer. Incubate for 120 minutes at 30° C. while shaking. The plates are centrifuged (1500 rpm, 10 min) and counted in Topcounter.
Assay buffer: 50 mM HEPES

EC50 (human GLP-1 receptor [1]) [nM] | IC50 [2] [nM] | IC50 (human GLP-1 receptor [3]) [nM] | Compound
< 0.3 | 200 to 1500 | 0.24 to 44 | CC[C@H](C)[C@H](NC(=O)[C@H](Cc1ccccc1)NC(=O)[C@H](CCC(=O)O)NC(=O)[C@H](CCCNC(=N)N)NC(=O)[C@@H](NC(=O)[C@H](C)NC(=O)[C@H](CCC(N)=O)NC(=O)[C@H](CCC(=O)O)NC(=O)[C@H](CCC(=O)O)NC(=O)[C@H](CC(C)C)NC(=O)[C@H](Cc1ccc(O)cc1)NC(=O)[C@H](CO)NC(=O)[C@H](CO)NC(=O)[C@@H](NC(=O)[C@H](CC(=O)O)NC(=O)[C@H](CO)NC(=O)[C@@H](NC(=O)[C@H](Cc1ccccc1)NC(=O)[C@@H](NC(=O)CNC(=O)[C@H](CCC(=O)O)NC(=O)[C@H](C)NC(=O)[C@@H](N)Cc1c[nH]cn1)[C@@H](C)O)[C@@H](C)O)C(C)C)C(C)C)C(=O)N[C@@H](C)C(=O)N[C@@H](Cc1c[nH]c2ccccc12)C(=O)N[C@@H](CC(C)C)C(=O)N[C@H](C(N)=O)C(C)C [Example 4, [Glu22, Val25, Arg26] GLP-1 (7-33)amide] (H-HAEGTFTSDVSSYLEEQAVREFIAWLV-NH2)
< 0.3 | 200 to 1500 | 0.24 to 44 | CC[C@H](C)[C@H](NC(=O)[C@H](Cc1ccccc1)NC(=O)[C@H](CCC(=O)O)NC(=O)[C@H](CCCNC(=N)N)NC(=O)[C@@H](NC(=O)[C@H](C)NC(=O)[C@H](CCC(N)=O)NC(=O)[C@H](CCC(=O)O)NC(=O)[C@H](CCC(=O)O)NC(=O)[C@H](CCCCN)NC(=O)[C@H](Cc1ccc(O)cc1)NC(=O)[C@H](CO)NC(=O)[C@H](CO)NC(=O)[C@@H](NC(=O)[C@H](CC(=O)O)NC(=O)[C@H](CO)NC(=O)[C@@H](NC(=O)[C@H](Cc1ccccc1)NC(=O)[C@@H](NC(=O)CNC(=O)[C@H](CCC(=O)O)NC(=O)C(C)(C)NC(=O)[C@@H](N)Cc1c[nH]cn1)[C@@H](C)O)[C@@H](C)O)C(C)C)C(C)C)C(=O)N[C@@H](CCC(=O)O)C(=O)N[C@@H](Cc1c[nH]c2ccccc12)C(=O)N[C@@H](CC(C)C)C(=O)N[C@H](C(N)=O)C(C)C [Example 5, [Aib8,Lys20,Glu22,Val25,Arg26,Glu30] GLP-1 (7-33) Amide] (H-H[Aib]EGTFTSDVSSYKEEQAVREFIEWLV-NH2)
< 0.3 | 200 to 1500 | 0.24 to 44 | CC[C@H](C)[C@H](NC(=O)[C@H](Cc1ccccc1)NC(=O)[C@H](CCC(=O)O)NC(=O)[C@H](CCCNC(=N)N)NC(=O)[C@H](C)NC(=O)[C@H](C)NC(=O)[C@H](CCC(N)=O)NC(=O)[C@H](CCC(=O)O)NC(=O)[C@H](CCC(=O)O)NC(=O)[C@H](CC(C)C)NC(=O)[C@H](Cc1ccc(O)cc1)NC(=O)[C@H](CO)NC(=O)[C@H](CO)NC(=O)[C@@H](NC(=O)[C@H](CC(=O)O)NC(=O)[C@H](CO)NC(=O)[C@@H](NC(=O)[C@H](Cc1ccccc1)NC(=O)[C@@H](NC(=O)CNC(=O)[C@H](CCC(=O)O)NC(=O)[C@H](C)NC(=O)[C@@H](N)Cc1c[nH]cn1)[C@@H](C)O)[C@@H](C)O)C(C)C)C(=O)N[C@@H](C)C(=O)N[C@@H](Cc1c[nH]c2ccccc12)C(=O)N[C@@H](CC(C)C)C(=O)N[C@H](C(N)=O)C(C)C [Example 1, [Glu22,Arg26]GLP-1 (7-33) Amide] (H-HAEGTFTSDVSSYLEEQAAREFIAWLV-NH2)
< 0.3 | 200 to 1500 | 0.24 to 44 | CC[C@H](C)[C@H](NC(=O)[C@H](Cc1ccccc1)NC(=O)[C@H](CCC(=O)O)NC(=O)[C@H](CCCNC(=N)N)NC(=O)[C@H](C)NC(=O)[C@H](C)NC(=O)[C@H](CCC(N)=O)NC(=O)[C@H](CCC(=O)O)NC(=O)[C@H](CCC(=O)O)NC(=O)[C@H](CC(C)C)NC(=O)[C@H](Cc1ccc(O)cc1)NC(=O)[C@H](CO)NC(=O)[C@H](CO)NC(=O)[C@@H](NC(=O)[C@H](CC(=O)O)NC(=O)[C@H](CO)NC(=O)[C@@H](NC(=O)[C@H](Cc1ccccc1)NC(=O)[C@@H](NC(=O)CNC(=O)[C@H](CCC(=O)O)NC(=O)[C@H](C)NC(=O)[C@@H](N)Cc1c[nH]cn1)[C@@H](C)O)[C@@H](C)O)C(C)C)C(=O)N[C@@H](C)C(=O)N[C@@H](Cc1c[nH]c2ccccc12)C(=O)N[C@@H](CC(C)C)C(=O)N[C@H](C(=O)O)C(C)C [Example 7, [Glu22, Arg26]GLP-1(7-33)peptide] (H-HAEGTFTSDVSSYLEEQAAREFIAWLV-OH)
